Results: publication PMC5667636 (Antiviral Research, 2017)

Tests used:
[1] = tested on: neuraminidase (NA) of A(H1N1)pdm09 viruses; conditions: cited from earlier work
[2] = tested on: neuraminidase (NA) of B/Yamagata-lineage viruses; type: biochemical, influenza B/Yamagata-lineage virus
[3] = tested on: neuraminidase (NA) of A(H1N1)pdm09 viruses; type: biochemical, influenza A(H1N1)pdm09 virus

| SMILES | effect on inhibition (IC50 fold) [1] | inhibition phenotype in NAI assay (NI/RI/HRI) [2] | IC50 fold-change of viruses exhibiting RI/HRI [3] |
| --- | --- | --- | --- |
| CCOC(=O)C1=C[C@@H](OC(CC)CC)[C@H](NC(C)=O)[C@@H](N)C1 [Oseltamivir, oseltamivir] | 5- to 8 fold |  |  |
| CCC(CC)[C@H](NC(C)=O)[C@@H]1[C@H](O)[C@@H](C(=O)O)C[C@H]1N=C(N)N [Peramivir, peramivir] |  | borderline RI | 10- to 6270 fold |
| CC(=O)N[C@H]1[C@H]([C@H](O)[C@H](O)CO)OC(C(=O)O)=C[C@@H]1N=C(N)N [Zanamivir, zanamivir] |  | borderline RI |  |
